In BindingDB's records for doi:10.1016/j.chembiol.2016.12.011 (Saarland University, 2017):

Target: Ezrin (Homo sapiens, UniProt P15311)
Assay: SPR Assay
Details: pH 5.5; 25 °C
Experimental: Recombinant ezrin (Hypermol) was diluted to […] in sodium acetate buffer (pH 5.5, 10 mM) immobilized for 350 s on a CM5 Sensor Chip (Biacore) by standard amine coupling to yield around 10,000 response units. The reference flow cell was prepared exactly as the ligand flow cell, although sodium acetate buffer only (pH 5.5, 10 mM) was used instead of recombinant ezrin. Binding interactions were monitored at 25 °C with a flow rate of […] in HBSEP/1% DMSO as running buffer. Disorazole A was injected at […]. Disorazole Z was injected at […]. The contact time for each compound was 120 s and the dissociation time 500 s. To rule out non-specific binding, a negative control protein was immobilized on a CM5 Sensor Chip (Biacore) by standard amine coupling: BSA (Sigma) was diluted to […] in sodium acetate buffer (pH 4.5, 10 mM) and immobilized for 90 s to yield around 5,000 response units. The reference flow cell was prepared with sodium acetate buffer (pH 4.5).

Ezrin, sequence (P15311 whole entry): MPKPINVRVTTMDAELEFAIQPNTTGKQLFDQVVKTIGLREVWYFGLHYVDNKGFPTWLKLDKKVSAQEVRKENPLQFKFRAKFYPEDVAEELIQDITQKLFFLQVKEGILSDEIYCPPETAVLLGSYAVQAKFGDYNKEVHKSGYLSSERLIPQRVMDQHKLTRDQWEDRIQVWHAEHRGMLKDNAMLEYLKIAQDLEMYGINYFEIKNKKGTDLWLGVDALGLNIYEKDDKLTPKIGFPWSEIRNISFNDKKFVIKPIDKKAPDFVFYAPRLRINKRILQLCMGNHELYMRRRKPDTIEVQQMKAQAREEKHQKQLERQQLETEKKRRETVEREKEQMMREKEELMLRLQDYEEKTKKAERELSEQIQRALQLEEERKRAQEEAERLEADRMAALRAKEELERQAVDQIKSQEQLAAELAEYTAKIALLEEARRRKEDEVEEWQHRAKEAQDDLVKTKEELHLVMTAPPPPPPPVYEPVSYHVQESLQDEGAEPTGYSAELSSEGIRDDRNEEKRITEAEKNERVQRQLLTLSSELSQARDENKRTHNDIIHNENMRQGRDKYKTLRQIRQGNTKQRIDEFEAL

SMILES | Kd [µM]
C/C=C/[C@H](O)C(C)(C)[C@@H]1CCC[C@H]2O[C@H]2CC[C@@H]2O[C@@H]2c2nc(co2)C(=O)O[C@H](C(C)(C)[C@@H](O)/C=C/C)C\C=C/C(C)=C\C=C/[C@H](OC)Cc2nc(co2)C(=O)O1 [Disorazole A] | 22
C/C=C/[C@H](O)C(C)(C(=O)OC)[C@@H]1C\C=C/C=C/C=C/c2nc(co2)C(=O)O[C@H](C(C)(C(=O)OC)[C@@H](O)/C=C/C)C\C=C/C=C/C=C/c2nc(co2)C(=O)O1 (some centres not stated) [Disorazole Z] | 74.9
